The numbers were not newly measured in patent US4645756A, “[α,ω-bis(diphenylphosphino)hydrocarbon]bis[(thiosugar)gold] and bis[(selenosugar)gold] derivatives, pharmaceutical compositions and method of use” (priority 1985, dated 1987), which cites them from elsewhere.

The conditions of the data set: Struck et al. 1966; cited from earlier work.

Consider `c1ccc(P(CCP(c2ccccc2)c2ccccc2)c2ccccc2)cc1` [ethylenebis(diphenylphosphine)], for which the cytotoxic activity entry is recorded as “cytotoxic activity”.
